Data taken from US9751858B2, “3-heteroaroylamino-propionic acid derivatives and their use as pharmaceuticals” (SANOFI, priority 2011, dated 2017).

These molecules were tested against T1, Recombinant human cathepsin A (Homo sapiens, UniProt P10619) (assay: Cathepsin A inhibitory activity). Conditions: activated recombinant human cathepsin A 833 ng/ml, Bodipy FL-labeled bradykinin 2 μM, pH 5.5, 15 min room temperature.
T1 construct: Recombinant human cathepsin A (residues 29-480, with a C-terminal 10-His tag); 10-His (C); purchased R&D Systems 1049-SE
T1 sequence (P10619 29-326 limits assumed): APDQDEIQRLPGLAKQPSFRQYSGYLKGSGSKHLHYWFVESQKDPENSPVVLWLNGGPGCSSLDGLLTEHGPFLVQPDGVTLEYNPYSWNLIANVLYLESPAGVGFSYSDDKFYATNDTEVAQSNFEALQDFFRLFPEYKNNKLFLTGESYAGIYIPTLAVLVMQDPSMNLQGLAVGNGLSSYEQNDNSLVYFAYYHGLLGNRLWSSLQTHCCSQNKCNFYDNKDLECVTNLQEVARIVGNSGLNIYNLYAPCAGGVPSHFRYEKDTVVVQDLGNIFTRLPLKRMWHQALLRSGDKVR
T1 sequence (P10619 327-480 limits assumed): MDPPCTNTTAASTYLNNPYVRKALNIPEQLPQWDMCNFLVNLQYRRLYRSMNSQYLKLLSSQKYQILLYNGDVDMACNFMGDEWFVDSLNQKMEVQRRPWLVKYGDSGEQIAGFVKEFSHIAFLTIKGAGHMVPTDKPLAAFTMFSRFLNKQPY
Assay type: biochemical
Method: a) Cathepsin a Inhibitory Activity
Briefly, cathepsin A was incubated at 10 μg/ml with cathepsin L at 1 μg/ml in activation buffer (25 mM 2-(morpholin-4-yl)-ethanesulfonic acid (MES), pH 6.0, containing 5 mM dithiothreitol (DTT)) for 15 min at 37° C.
The activated cathepsin A was diluted in assay buffer (25 mM MES, pH 5.5, containing 5 mM DTT) and mixed with the test compound (dissolved in assay buffer containing (v/v) 3% DMSO) or, in the control experiments, with the vehicle in a multiple assay plate. After incubation for 15 min at room temperature, as substrate then bradykinin carrying an N-terminal ®Bodipy FL (4,4-difluoro-5,7-dimethyl-4-bora-3a,4a-diaza-s-indacene-3-propionyl) label (JPT Peptide Technologies GmbH; dissolved in assay buffer) was added to the mixture. […] After incubation for 15 min at room temperature the reaction was stopped by the addition of stop buffer (130 mM 2-(4-(2-hydroxy-ethyl)-piperazin-1-yl)-ethanesulfonic acid, pH 7.4, containing (v/v) 0.013%® Triton X-100, 0.13% Coating Reagent 3 (Caliper Life Sciences), 6.5% DMSO and 20 μM ebelactone B (Sigma, # E0886)).
Uncleaved substrate and product were then separated by a microfluidic capillary electrophoresis on a LabChip® 3000 Drug Discovery System (12-Sipper-Chip; Caliper Life Sciences) and quantified by determination of the respective peak areas. Substrate turnover was calculated by dividing product peak area by the sum of substrate and product peak areas, and the enzyme activity and the inhibitory effect of the test compound thus quantified.

Compound | IC50 [nM]
Cc1ccccc1[C@H](CC(=O)O)NC(=O)c1nn(C)cc1NS(=O)(=O)CCc1ccccc1 [Example 121, (S)-3-{[1-Methyl-4-(2-phenyl-ethanesulfonylamino)-1H-pyrazole-3-carbonyl]-amino}-3-o-tolyl-propionic acid] | > 10000
O=C(O)C[C@H](NC(=O)c1nc(-c2ccccc2)oc1C(F)(F)F)c1cccc(F)c1 [Example 79, (S)-3-(3-Fluoro-phenyl)-3-[(2-phenyl-5-trifluoromethyl-oxazole-4-carbonyl)-amino]-propionic acid] | > 10000
O=C(O)C[C@H](NC(=O)c1noc(-c2cccc(F)c2F)n1)c1ccccc1F [Example 43, (S)-3-{[5-(2,3-Difluoro-phenyl)-[1,2,4]oxadiazole-3-carbonyl]-amino}-3-(2-fluoro-phenyl)-propionic acid] | 107
Cc1ccc([C@H](CC(=O)O)NC(=O)c2noc(-c3ccccc3F)n2)cc1 [Example 12, (S)-3-{[5-(2-Fluoro-phenyl)-[1,2,4]oxadiazole-3-carbonyl]-amino}-3-p-tolyl-propionic acid] | > 10000
CCCc1nc(C(=O)N[C@@H](CC(=O)O)c2ccc(C)cc2)nn1-c1ccccc1Cl [Example 88, (S)-3-{[1-(2-Chloro-phenyl)-5-propyl-1H-[1,2,4]triazole-3-carbonyl]-amino}-3-p-tolyl-propionic acid] | 335
O=C(O)C[C@H](NC(=O)CCc1nc(-c2ccccc2F)no1)c1cccc(F)c1 [Example 60, (S)-3-(3-Fluoro-phenyl)-3-{3-[3-(2-fluoro-phenyl)-[1,2,4]oxadiazol-5-yl]-propionylamino}-propionic acid] | 22400
Cc1oc(-c2ccccc2F)nc1C(=O)N[C@@H](CC(=O)O)c1cccc(Cl)c1Cl [Example 94, (S)-3-(2,3-Dichloro-phenyl)-3-{[2-(2-fluoro-phenyl)-5-methyl-oxazole-4-carbonyl]-amino}-propionic acid] | 514
COc1cccc([C@H](CC(=O)O)NC(=O)c2nc(-c3ccccc3)oc2C)c1 [Example 24, (S)-3-(3-Methoxy-phenyl)-3-[(5-methyl-2-phenyl-oxazole-4-carbonyl)-amino]-propionic acid] | 6390
Cc1cccc([C@H](CC(=O)O)NC(=O)c2noc(-c3ccccc3F)n2)c1 [Example 16, (S)-3-{[5-(2-Fluoro-phenyl)-[1,2,4]oxadiazole-3-carbonyl]-amino}-3-m-tolyl-propionic acid] | > 10000
CC(C)c1oc(-c2ccccc2)nc1C(=O)N[C@@H](CC(=O)O)c1ccccc1F [Example 47, (S)-3-(2-Fluoro-phenyl)-3-[(5-isopropyl-2-phenyl-oxazole-4-carbonyl)-amino]-propionic acid] | 2180
Cc1ccccc1[C@H](CC(=O)O)NC(=O)c1nc(-c2ccccc2)oc1C [Example 5, (S)-3-[(5-Methyl-2-phenyl-oxazole-4-carbonyl)-amino]-3-o-tolyl-propionic acid] | 251
O=C(O)C[C@H](NC(=O)c1noc(-c2ccccc2F)n1)c1cccc(F)c1 [Example 18, (S)-3-(3-Fluoro-phenyl)-3-{[5-(2-fluoro-phenyl)-[1,2,4]oxadiazole-3-carbonyl]-amino}-propionic acid] | > 10000
Cc1oc(-c2ccccc2)nc1C(=O)N[C@@H](CC(=O)O)c1ccccc1Cl [Example 32, (S)-3-(2-Chloro-phenyl)-3-[(5-methyl-2-phenyl-oxazole-4-carbonyl)-amino]-propionic acid] | 1210
Cc1oc(-c2ccccc2F)nc1C(=O)N[C@@H](CC(=O)O)c1cccc(F)c1 [Example 36, (S)-3-(3-Fluoro-phenyl)-3-{[2-(2-fluoro-phenyl)-5-methyl-oxazole-4-carbonyl]-amino}-propionic acid] | 198
Cc1ccccc1[C@H](CC(=O)O)NC(=O)c1cc(-c2ccc(Cl)cc2)on1 [Example 26, (S)-3-{[5-(4-Chloro-phenyl)-isoxazole-3-carbonyl]amino}-3-o-tolyl-propionic acid] | > 10000
O=C(N[C@H](C(=O)O)C1CCCCC1)c1noc(-c2cnccc2C(F)(F)F)n1 [Example 54, (S)-Cyclohexyl-{[5-(4-trifluoromethyl-pyridin-3-yl)-[1,2,4]oxadiazole-3-carbonyl]-amino}-acetic acid] | 16700

Compound | IC50 [nM]
O=C(O)C[C@H](NC(=O)c1nc(-c2ccccc2)n(-c2ccccc2)n1)c1cccc(Cl)c1Cl [Example 124, (S)-3-(2,3-Dichloro-phenyl)-3-[(1,5-diphenyl-1H-[1,2,4]triazole-3-carbonyl)-amino]-propionic acid] | 50.9
Cc1oc(-c2ccccc2)nc1C(=O)N[C@@H](CC(=O)O)c1ccccc1F [Example 7, (S)-3-(2-Fluoro-phenyl)-3-[(5-methyl-2-phenyl-oxazole-4-carbonyl)-amino]-propionic acid] | 4130
Cc1oc(-c2ccccc2)nc1C(=O)N[C@@H](CC(=O)O)c1cccc(F)c1 [Example 8, (S)-3-(3-Fluoro-phenyl)-3-[(5-methyl-2-phenyl-oxazole-4-carbonyl)-amino]-propionic acid] | 5310
CCCC1CCCCN1C(=O)c1cc(C(=O)N[C@@H](CC(=O)O)c2ccc(C)cc2)nn1CC (stereo partly drawn) [Example 115, (S)-3-{[1-Ethyl-5-(2-propyl-piperidine-1-carbonyl)-1H-pyrazole-3-carbonyl]-amino}-3-p-tolyl-propionic acid] | 2500
Cc1oc(-c2ccccc2F)nc1C(=O)N[C@@H](CC(=O)O)c1ccc(C(F)(F)F)cc1 [Example 93, (S)-3-{[2-(2-Fluoro-phenyl)-5-methyl-oxazole-4-carbonyl]-amino}-3-(4-trifluoromethyl-phenyl)-propionic acid] | 944
Cc1oc(-c2ccccc2F)nc1C(=O)NC(CC(=O)O)c1ccccc1Cl (stereo not shown) [Example 62, 3-(2-Chloro-phenyl)-3-{[2-(2-fluoro-phenyl)-5-methyl-oxazole-4-carbonyl]-amino}-propionic acid] | 3410
Cc1ccccc1[C@H](CC(=O)O)NC(=O)c1nc(-c2ccccc2F)oc1C [Example 25, (S)-3-{[2-(2-Fluoro-phenyl)-5-methyl-oxazole-4-carbonyl]-amino}-3-o-tolyl-propionic acid] | 311
Cc1oc(-c2ccccc2F)nc1C(=O)N[C@@H](CC(=O)O)Cc1ccccc1 [Example 29, (R)-3-{[2-(2-Fluoro-phenyl)-5-methyl-oxazole-4-carbonyl]-amino}-4-phenyl-butyric acid] | 542
O=C(O)C[C@H](NC(=O)c1nc(-c2ccccc2)n(-c2ccccc2)n1)c1ccccc1F [Example 90, (S)-3-[(1,5-Diphenyl-1H-[1,2,4]triazole-3-carbonyl)-amino]-3-(2-fluoro-phenyl)-propionic acid] | 353
Cc1oc(-c2ccccc2)nc1C(=O)N[C@@H](CC(=O)O)c1ccccc1C(F)(F)F [Example 78, (S)-3-[(5-Methyl-2-phenyl-oxazole-4-carbonyl)-amino]-3-(2-trifluoromethyl-phenyl)-propionic acid] | 8470
CC(C)c1oc(-c2ccccc2)nc1C(=O)N[C@@H](CC(=O)O)c1ccccc1 [Example 22, (S)-3-[(5-Isopropyl-2-phenyl-oxazole-4-carbonyl)-amino]-3-phenyl-propionic acid] | 1040
CC(C)c1oc(-c2ccccc2)nc1C(=O)N[C@@H](CC(=O)O)c1ccc(F)cc1 [Example 48, (S)-3-(4-Fluoro-phenyl)-3-[(5-isopropyl-2-phenyl-oxazole-4-carbonyl)-amino]-propionic acid] | 1820
O=C(O)C[C@H](NC(=O)CCc1nc(-c2ccccc2F)no1)c1ccccc1F [Example 59, (S)-3-(2-Fluoro-phenyl)-3-{3-[3-(2-fluoro-phenyl)-[1,2,4]oxadiazol-5-yl]-propionylamino}-propionic acid] | 337
CCc1nc(C(=O)N[C@@H](CC(=O)O)c2ccccc2)nn1-c1ccccc1Cl [Example 56, (S)-3-{[1-(2-Chloro-phenyl)-5-ethyl-1H-[1,2,4]triazole-3-carbonyl]-amino}-3-phenyl-propionic acid] | 1680
Cc1ccccc1[C@H](CC(=O)O)NC(=O)c1nn(C)cc1NS(=O)(=O)CC1CCCCC1 [Example 119, (S)-3-[(4-Cyclohexylmethanesulfonylamino-1-methyl-1H-pyrazole-3-carbonyl)-amino]-3-o-tolyl-propionic acid] | > 10000
